{
  "source": "patent US20250270576A1",
  "about": "“AGRICULTURAL COMPOSITIONS AND METHODS OF USING THE SAME” (Arizona Board of Regents on behalf of Arizona State …, priority 2021, published 2025)",
  "test_system": "Col-0 plants",
  "test": "growth of wild type plants in the presence of 2,3 butanediol",
  "assay_type": "in vivo, Arabidopsis thaliana",
  "excerpt": "Top left: phenotypes of Col-0 (wild type; Arabidopsis thaliana) and genetically modified plants expressing the transgenic PROTON (H+-) pyrophosphatase in all tissues (AVP1) or in phloem cells only (pCoY), where average yields are AVP1>pCoY>Col-0 (FIG. 7). Left center: differential root acidification capacity of each genotype. Left bottom: 16S rRNA based composition of the root associated microbiomes (RAMs) through principal component analyses. Middle: Metabolomic profile of root exudates of the three plant genotypes, depicted as a heat map of relative concentration (each column a pools n>3 plants). Top right: Enrichment of proportional abundance of query and control pathways in the metagenome of rhizosphere RAMs. Middle right: Effect of exposure to 250 μM 2,3-butanediol on root development of Col-0 plants. Bottom right: mechanistic model for plant-microbe interactions at the base of phenotype enhancement and transferability.\nTo determine how the plant genotype can be made extensive to the RAM, we made use of a second mutant plant (pCoYMV::AVP1; pCoY hereafter), which overexpresses the H+-PPase in companion cells and sieve elements of the plant's phloem (22). […] We then assessed a second potential driver: root exudates. We determined the root exudate profiles, or exometabolome (23), of the three genotypes when grown under sterility on agar-solidified medium. […]",
  "data": [
    {"compound": "CC(O)C(C)O", "note": "(centres unmarked) [2,3 butanediol, 2,3-butanediol]", "values": [
      {"measurement": "phenotype in root development of wild type plants", "setting": "wild type (Col-0) plants exposed to 250 μM 2,3-butanediol (FIG. 3)", "value": "AVP1-like, high yield phenotypes"},
      {"measurement": "phenotype in shoots of wild type plants", "setting": "wild type (Col-0) plants grown in the presence of 2,3 butanediol, 250 μM per FIG. 3 legend", "value": "AVP1-like, high yield phenotypes"}
    ]}
  ]
}
